In US4312867A, “Antibacterial compounds, processes for their preparation and compositions containing them” (Beecham Group Limited, priority 1979, dated 1982):
Converted amounts (≈) assume the structure as drawn.

Each molecule was assayed on Strep dysgalaciae SPD1 (assay: MIC veterinary bacteria (Table 2), serial dilution in agar). Conditions: diagnostic sensitivity test agar.
Type: cell-based
`C/C(=C\C(=O)OCCCS(=O)(=O)N(C)C)CC1OCC(CC2OC2C(C)C(C)O)C(O)C1O` (centres unmarked) [Example 4, 3-N,N-Dimethylsulphamoylpropyl monate A] gave an MIC of 2.5 µg/mL (≈ 5.06 µM).

These molecules were tested on Strep suis (group D) SPS11 in the same assay as above. Conditions: diagnostic sensitivity test agar.
Type: cell-based
Work on `C/C(=C\C(=O)OCCCS(=O)(=O)N(C)C)CC1OCC(CC2OC2C(C)C(C)O)C(O)C1O` (centres unmarked) [Example 4, 3-N,N-Dimethylsulphamoylpropyl monate A] yielded an MIC of 40 µg/mL (≈ 81 µM).

The molecules below were run on M. suipneumoniae Str. 11 (assay: anti-mycoplasmal MIC, Friis broth solidified with agarose (Table 4)). Conditions: Mesomycoplasma hyopneumoniae, 144 h; M. suipneumoniae Str. 11; 6 days at 37° C.; read-out: MIC.
Type: cell-based
`C/C(=C\C(=O)OCCCS(=O)(=O)N(C)C)CC1OCC(CC2OC2C(C)C(C)O)C(O)C1O` (centres unmarked) [Example 4, 3-N,N-Dimethylsulphamoylpropyl monate A] showed an MIC of 500 µg/mL (≈ 1010 µM).

Each molecule was assayed on S. typhimurium S18 (assay: MIC veterinary bacteria (Table 2), serial dilution in agar). Conditions: Salmonella enterica, diagnostic sensitivity test agar.
Type: cell-based
`C/C(=C\C(=O)OCCCS(=O)(=O)N(C)C)CC1OCC(CC2OC2C(C)C(C)O)C(O)C1O` (centres unmarked) [Example 4, 3-N,N-Dimethylsulphamoylpropyl monate A] showed an MIC greater than 80 µg/mL.

Each molecule was assayed on Erysipelothrix rhusiopathiae NCTC 8163 in the same assay as above. Conditions: NCTC8163; Erysipelothrix rhusiopathiae NCTC 8163; diagnostic sensitivity test agar; read-out: MIC.
Type: cell-based
Molecule `C/C(=C\C(=O)OCCCS(=O)(=O)N(C)C)CC1OCC(CC2OC2C(C)C(C)O)C(O)C1O` (centres unmarked) [Example 4, 3-N,N-Dimethylsulphamoylpropyl monate A] has an MIC greater than 80 µg/mL.

These molecules were tested on Pasteurella multocida 1633 (assay: MIC human bacteria (Table 1), serial dilution in nutrient agar). Conditions: Pasteurella multocida, 1633.
Type: cell-based
Molecule `C/C(=C\C(=O)OCCCS(=O)(=O)N(C)C)CC1OCC(CC2OC2C(C)C(C)O)C(O)C1O` (centres unmarked) [Example 4, 3-N,N-Dimethylsulphamoylpropyl monate A] has an MIC of 0.5 µg/mL (≈ 1.01 µM).

Each molecule was assayed on Staph aureus W2827 in the same assay as above. Conditions: Staphylococcus aureus, nutrient agar with 5% chocolated horse blood.
Type: cell-based
Work on `C/C(=C\C(=O)OCCCS(=O)(=O)N(C)C)CC1OCC(CC2OC2C(C)C(C)O)C(O)C1O` (centres unmarked) [Example 4, 3-N,N-Dimethylsulphamoylpropyl monate A] yielded an MIC of 10 µg/mL (≈ 20.3 µM).

The molecules below were run on E. coli ESS in the same assay as above. Conditions: Escherichia coli; E. coli ESS; nutrient agar with 5% chocolated horse blood; read-out: MIC.
Type: cell-based
For `C/C(=C\C(=O)OCCCS(=O)(=O)N(C)C)CC1OCC(CC2OC2C(C)C(C)O)C(O)C1O` (centres unmarked) [Example 4, 3-N,N-Dimethylsulphamoylpropyl monate A], the MIC was 2.5 µg/mL (≈ 5.06 µM).

These molecules were tested on Staph aureus B4 (pen. resis) (assay: MIC veterinary bacteria (Table 2), serial dilution in agar). Conditions: Staphylococcus aureus; Staph aureus B4 (pen. resis); diagnostic sensitivity test agar; read-out: MIC.
Type: cell-based
`C/C(=C\C(=O)OCCCS(=O)(=O)N(C)C)CC1OCC(CC2OC2C(C)C(C)O)C(O)C1O` (centres unmarked) [Example 4, 3-N,N-Dimethylsulphamoylpropyl monate A] was tested, and the MIC was 5 µg/mL (≈ 10.1 µM).

The molecules below were run on Haemophilus influenzae Wy21 (assay: MIC human bacteria (Table 1), serial dilution in nutrient agar). Conditions: Haemophilus influenzae, WY21.
Type: cell-based
For `C/C(=C\C(=O)OCCCS(=O)(=O)N(C)C)CC1OCC(CC2OC2C(C)C(C)O)C(O)C1O` (centres unmarked) [Example 4, 3-N,N-Dimethylsulphamoylpropyl monate A], the MIC was 0.1 µg/mL (≈ 0.203 µM).

What follows are molecules tested on Sarcina lutea 8340 in the same assay as above. Conditions: nutrient agar with 5% chocolated horse blood.
Type: cell-based
For `C/C(=C\C(=O)OCCCS(=O)(=O)N(C)C)CC1OCC(CC2OC2C(C)C(C)O)C(O)C1O` (centres unmarked) [Example 4, 3-N,N-Dimethylsulphamoylpropyl monate A], the MIC was “No Growth”.

Each molecule was assayed on Haemophilus influenzae Q1 in the same assay as above. Conditions: Haemophilus influenzae, Q1.
Type: cell-based
`C/C(=C\C(=O)OCCCS(=O)(=O)N(C)C)CC1OCC(CC2OC2C(C)C(C)O)C(O)C1O` (centres unmarked) [Example 4, 3-N,N-Dimethylsulphamoylpropyl monate A] gave an MIC of 0.1 µg/mL (≈ 0.203 µM).

The molecules below were run on Strep pyogenes C 2761 in the same assay as above. Conditions: nutrient agar with 5% chocolated horse blood.
Type: cell-based
`C/C(=C\C(=O)OCCCS(=O)(=O)N(C)C)CC1OCC(CC2OC2C(C)C(C)O)C(O)C1O` (centres unmarked) [Example 4, 3-N,N-Dimethylsulphamoylpropyl monate A] gave an MIC of 5 µg/mL (≈ 10.1 µM).

Each molecule was assayed on Bacillus subtilis 6633 in the same assay as above. Conditions: nutrient agar with 5% chocolated horse blood.
Type: cell-based
`C/C(=C\C(=O)OCCCS(=O)(=O)N(C)C)CC1OCC(CC2OC2C(C)C(C)O)C(O)C1O` (centres unmarked) [Example 4, 3-N,N-Dimethylsulphamoylpropyl monate A] gave an MIC of 2.5 µg/mL (≈ 5.06 µM).

These molecules were tested on Strep faecalis I in the same assay as above. Conditions: nutrient agar with 5% chocolated horse blood.
Type: cell-based
For `C/C(=C\C(=O)OCCCS(=O)(=O)N(C)C)CC1OCC(CC2OC2C(C)C(C)O)C(O)C1O` (centres unmarked) [Example 4, 3-N,N-Dimethylsulphamoylpropyl monate A], the MIC was greater than 100 µg/mL.

The molecules below were run on Staph aureus Oxford in the same assay as above. Conditions: Staphylococcus aureus, nutrient agar with 5% chocolated horse blood.
Type: cell-based
For `C/C(=C\C(=O)OCCCS(=O)(=O)N(C)C)CC1OCC(CC2OC2C(C)C(C)O)C(O)C1O` (centres unmarked) [Example 4, 3-N,N-Dimethylsulphamoylpropyl monate A], the MIC was 10 µg/mL (≈ 20.3 µM).

Each molecule was assayed on Staph aureus Russell in the same assay as above. Conditions: Staphylococcus aureus, nutrient agar with 5% chocolated horse blood.
Type: cell-based
`C/C(=C\C(=O)OCCCS(=O)(=O)N(C)C)CC1OCC(CC2OC2C(C)C(C)O)C(O)C1O` (centres unmarked) [Example 4, 3-N,N-Dimethylsulphamoylpropyl monate A] showed an MIC of 10 µg/mL (≈ 20.3 µM).

What follows are molecules tested on E. coli NCTC 10418 in the same assay as above. Conditions: Escherichia coli, NCTC10418; E. coli NCTC 10418; nutrient agar with 5% chocolated horse blood; read-out: MIC.
Type: cell-based
For `C/C(=C\C(=O)OCCCS(=O)(=O)N(C)C)CC1OCC(CC2OC2C(C)C(C)O)C(O)C1O` (centres unmarked) [Example 4, 3-N,N-Dimethylsulphamoylpropyl monate A], the MIC was greater than 100 µg/mL.

These molecules were tested on Bord bronchiseptica B09 (assay: MIC veterinary bacteria (Table 2), serial dilution in agar). Conditions: diagnostic sensitivity test agar.
Type: cell-based
`C/C(=C\C(=O)OCCCS(=O)(=O)N(C)C)CC1OCC(CC2OC2C(C)C(C)O)C(O)C1O` (centres unmarked) [Example 4, 3-N,N-Dimethylsulphamoylpropyl monate A] showed an MIC of 20 µg/mL (≈ 40.5 µM).

The molecules below were run on Ps. aeruginosa 10662 (assay: MIC human bacteria (Table 1), serial dilution in nutrient agar). Conditions: Pseudomonas aeruginosa, nutrient agar with 5% chocolated horse blood.
Type: cell-based
Work on `C/C(=C\C(=O)OCCCS(=O)(=O)N(C)C)CC1OCC(CC2OC2C(C)C(C)O)C(O)C1O` (centres unmarked) [Example 4, 3-N,N-Dimethylsulphamoylpropyl monate A] yielded an MIC greater than 100 µg/mL.
